{"source": "patent US7645740B2", "about": "“Peptide sequence found in Laminin 5 for treating skin impairments” (Laboratoires d'Anjou Centre National de la Recherche …, priority 2004, dated 2010)", "key": {"[1]": {"test_system": "normal human keratinocytes", "assay": "Cell adhesion test to immobilized peptides, normal human keratinocytes", "format": "cell-based", "experimental": "(§1) Dose-dependent cell adhesion of normal human keratinocytes to various peptides 1, 2 and 3. The peptides were immobilized in 96-well plates at the concentrations given on the abscissa. 10^5 cells were deposited in each well and plates were incubated at 37° C. for 1 hour. After washing, attached cells were fixed and cell adhesion was measured as described in the methodology section.\n(§2) Peptides 1, 2 and 3 were used for the cell adhesion experiments. A range of 7 decreasing concentrations (100 micrograms/ml, 50 micrograms/ml, 25 micrograms/ml, 12.5 micrograms/ml, 6.25 micrograms/ml, 3.125 micrograms/ml and 1.562 micrograms/ml) was made up by successive dilution in PBS (Phosphate Buffer Saline, KH2PO4 1.54 mM; Na2HPO4 1.42 mM; NaCl-131 mM) using a starting solution at a concentration of 1 mg/ml. These solutions were immediately distributed onto a 96-well culture plate (Greinher, Dutscher, Brumath, France) at a rate of 100 μl per well. Plates were then placed at +4° C. for 16 to 18 hours. The solutions were then removed by turning the plates and each well was saturated with a 1% PBS-BSA solution (bovine serum albumin). Three additional wells without the substrate underwent the same treatment and were used as blanks.\n(§3) Epithelial cells were detached from the culture dishes using a trypsin/EDAT solution (0.05-0.02%) then suspended in DMEM medium without additives for the cell lines and in KBM-2 without additive for human keratinocytes. The number of seeded cells per well is given in the graphs (50,000 to 100,000 cells per well).\n(§4) After cell seeding, the multi-well plates were placed in an incubator at 37° C. under 5% CO2. After incubation for 30 to 60 minutes, cells were observed under a phase contrast microscope in order to verify that the test was conducted correctly. The adhesion medium was then removed and each well was washed in a sterile PBS solution to remove non-adhering cells. The remaining cells, attached to the substrate, were then fixed using a solution of 1% glutaraldehyde in PBS for 15 minutes. The glutaraldehyde solution as removed and the cells were stained with a crystal violet solution diluted to 1% in distilled water for 30 minutes.\n(§5) After rinsing in water several times, cells were permeabilized by means of a 0.02% triton solution for 15 minutes in order to solubilize the crystal violet. Absorbances were read at 570 nm using an ELISA plate reader (MR500, Dynatech, Guernsey, Channel Islands). Each experimental point was carried out in triplicate. The blank value represented the mean absorbance of 3 control wells (BSA). This was subtracted from each of the optical density values for the experimental points. We then calculated the mean for the three absorbance values for each of the triplicate samples.\n(§6) The results are presented in the form of a graph with the absorbance values on the ordinate and the various substrate concentrations on the abscissa. Attached cells were photographed by phase contrast microscopy.\nFreshly isolated normal human keratinocytes were used in a second experiment. As the basal keratinocytes of the epidermis are in direct contact with LN-5 in the skin, it was necessary to test their adhesion capacity to the peptide in question. Human keratinocytes were obtained from a foreskin biopsy (surgery waste, Pavillon T-Bis, Eduard Herriot Hospital). […]"}, "NHKs": {"test_system": "NHKs", "assay": "Cell adhesion of NHKs to peptides co-immobilized with laminin 5", "format": "cell-based, human", "experimental": "Peptides 1, 2 and 3 (variable quantities indicated) and laminin 5 (fixed quantity 0.2 mg) were co-immobilized in 96-well plates. 5×104 NHKs were deposited in each well and plates were incubated at 37° C. for 1 hour. After washing, attached cells were fixed and cell adhesion was measured as described in the methodology section. Cell adhesion in the presence of the peptide is given as a percentage of cell adhesion obtained with laminin 5 alone. Cells were observed by phase contrast microscopy then photographed. Bar=50 μm.\nA decreasing range of LN5 (prepared in the laboratory) and COL4 (BD Biosciences, Le Pont de Claix, France) quantities was made up by successive dilution in PBS. These solutions were immediately distributed into a 96-well culture plate (Costar) at a rate of 100 μl per well. The experiment was conducted in exactly the same way as the experiment described in example 2. The results are given in the form of a graph with the absorbance values representing adhesion on the ordinate and the various substrate concentrations on the abscissa. Attached cells were photographed by phase contrast microscopy.\nIn order to analyse the effect of the peptide on cell adhesion to DEJ proteins, peptide TALRIRATYGEY (SEQ ID NO.1) (peptide 1) was co-immobilized with LN5 (FIG. 14) and COL4 (FIG. 15). The fixed quantity of matrix protein (LN5 and COL4) and the variable quantity of peptide are given on the graph (FIGS. 14 and 15). Peptides 2 and 3 (described in example 1) were used as controls for the experiment. The adhesion tests were carried out with NHK under the same conditions as the experiment given in FIG. 13 (50,000 cells per well). A peptide-free control representing 100% adhesion (LN5 only and COL4 only) was used to allow analysis of the effect of adhesion relating to the presence of the peptide. The results are given as a percentage of this control."}, "[2]": {"test_system": "A431 cells (skin epitheloids)", "assay": "Cell adhesion test to immobilized peptides, A431", "format": "cell-based", "experimental": "as §1, with “cell line A431” for “normal human keratinocytes”, “8×10^4” for “10^5”\nas §2, §3, §4, §5, §6\nThe following cells from epithelial cell lines were used initially (commonly used in preliminary studies on cell adhesion): • line HT1080 cells (human fibrosarcoma), American Type Culture Collection CCL-121. • line HB100 cells (human mammary epithelium), American Type Culture Collection HTB-124. • line A431 cells (skin epitheliods), American Type Culture Collection CRL-1555."}}, "data": [{"sequence": "TALRIRATYGEY (Human laminin 5) [Peptide 1]", "values": [{"measurement": "cell adhesion to immobilized peptide", "setting": "[1]; 0 to 10 micrograms immobilized peptide, 10^5 cells per well, 1 hour 37° C., absorbance 570 nm", "result": "effect also occurred"}, {"measurement": "immobilized peptide quantity at which adhesion occurred", "setting": "[1]; FIG. 5", "result": 0.15, "unit": "micrograms"}, {"measurement": "immobilized peptide quantity at which maximum adhesion was achieved", "setting": "[1]; FIG. 5", "result": 0.62, "unit": "micrograms"}, {"measurement": "effect on adhesion of NHKs to LN5 (co-immobilized)", "setting": "NHKs; laminin 5 fixed quantity 0.2 mg, 50,000 cells per well, percentage of LN5 alone", "result": "gradual and significant increase"}, {"measurement": "change of adhesion to LN5, on average", "setting": "NHKs; peptide quantity of 0.21 to 0.87 μg/well, LN5 alone = 100%", "result": "doubled"}, {"measurement": "immobilized peptide quantity at which adhesion occurred", "setting": "[2]; A431", "result": 0.62, "unit": "micrograms"}, {"measurement": "immobilized peptide quantity at which maximum adhesion was achieved", "setting": "[2]; A431", "result": 1.2, "unit": "micrograms"}, {"measurement": "cell adhesion to immobilized peptide", "setting": "[2]; A431, 0 to 10 micrograms immobilized peptide, 8×10^4 cells per well, 1 hour 37° C., absorbance 570 nm", "result": "led to cell adhesion"}]}]}
